# Source: PubChem BioAssay (NCI)
#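 Cells were grown in 96-well plates and exposed to each compound for 48 hours at five concentrations; endpoints were interpolated linearly between bracketing concentrations, or set to the highest concentration if not reached. TGI is the concentration that stops growth completely.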
# Assays:
# Experiment in all cases: NCI-60 cell line screen, 48 h
# KM12 colon = system: KM12 colon
# NCI-H23 lung = system: NCI-H23 lung
# RXF 393 renal = system: RXF 393 renal
# SW-620 colon = system: SW-620 colon
# TK-10 renal = system: TK-10 renal
# NCI/ADR-RES ovarian = system: NCI/ADR-RES ovarian
# MDA-N = system: MDA-N
# COLO 205 colon = system: COLO 205 colon
# HCT-15 colon = system: HCT-15 colon
# HOP-62 NSCLC = system: HOP-62 NSCLC
# OVCAR-3 ovarian = system: OVCAR-3 ovarian
# SNB-19 CNS = system: SNB-19 CNS
# SF-539 CNS = system: SF-539 CNS
# EKVX NSCLC = system: EKVX NSCLC
# MDA-MB-231 breast = system: MDA-MB-231 breast
# T-47D breast = system: T-47D breast
# HS 578T breast = system: HS 578T breast
# OVCAR-4 ovarian = system: OVCAR-4 ovarian
# CAKI-1 renal = system: CAKI-1 renal
# ACHN renal = system: ACHN renal
SMILES,TGI (KM12 colon) [µM],TGI (NCI-H23 lung) [µM],TGI (RXF 393 renal) [µM],TGI (SW-620 colon) [µM],TGI (TK-10 renal) [µM],TGI (NCI/ADR-RES ovarian) [µM],TGI (MDA-N) [µM],TGI (COLO 205 colon) [µM],TGI (HCT-15 colon) [µM],TGI (HOP-62 NSCLC) [µM],TGI (OVCAR-3 ovarian) [µM],TGI (SNB-19 CNS) [µM],TGI (SF-539 CNS) [µM],TGI (EKVX NSCLC) [µM],TGI (MDA-MB-231 breast) [µM],TGI (T-47D breast) [µM],TGI (HS 578T breast) [µM],TGI (OVCAR-4 ovarian) [µM],TGI (CAKI-1 renal) [µM],TGI (ACHN renal) [µM]
Cc1ccc2c(=O)cc(-c3ccsc3)[nH]c2n1,> 100,> 25.2,> 31,> 21.1,> 100,> 20.5,2.09,12.8,> 62.9,> 100,> 100,86.7,33.2,> 100,> 87.6,> 74.9,26.2,> 100,> 100,> 100
CCCCCCCCCCCCCCCCOCC(CCl)OP(=O)(O)OP(=O)(O)OCC1OC(n2ccc(N)nc2=O)C(O)C1O (stereo not given),> 100,> 100,> 100,> 100,> 100,> 100,> 100,> 100,> 100,> 100,> 100,> 100,> 100,> 100,> 100,> 100,> 100,> 100,> 100,> 100
O=C1CCCC2C3CC(CN12)C1CCCCN1C3 (stereo not given),> 100,> 100,> 100,> 100,> 100,> 100,> 100,> 100,> 100,> 100,> 100,> 100,> 100,> 100,> 100,> 100,> 100,> 100,> 100,> 100
CC(O)C1(CNc2cc(Cl)nc(N)n2)CC(CCc2ccccc2)C1 (stereo not given),27.7,19.4,30.8,29.3,43.1,21.8,27.6,28.8,24,27.3,33.7,34,32.6,37.3,22.5,44.1,38.4,23.3,29.4,22.2
Cc1ccc(NC2=N/C(=C/c3ccccc3)C(Cl)=N2)cc1,> 100,> 100,> 100,> 100,> 100,> 100,> 100,> 100,> 100,> 100,> 100,> 100,> 100,> 100,> 100,> 100,> 100,> 100,> 100,> 100
COc1ccc(/C(CC2OC(=O)c3ccccc32)=N\NC(=O)C[N+](C)(C)C)cc1 (stereo not given),52,47.7,77.6,64.1,87.8,56.7,> 100,71,44.8,> 100,> 100,96.5,> 100,> 100,> 100,> 100,> 100,78.5,> 100,> 100
C/C(=N\NC(=S)N(C)CCN(C)C(=S)N/N=C(\C)c1ccccn1)c1ccccn1,14.3,28.5,3.46,22.9,7.75,2.02,19.3,0.912,18.5,19,9.53,16.6,11.8,10.4,13.1,19,> 100,14.8,11.8,11.4
CN(C)CCCCN1c2ccccc2Sc2ccc(C(=O)c3ccccc3)cc21,4.99,34.2,4.17,2.91,8.42,11.1,6.74,3.13,9.27,6.99,9.88,12,6.59,15.9,5.2,13,9.69,10.8,5.32,7.19
Cn1/c(=N\N=C(\CNCCO)[C@@H](O)[C@@H]2OC(c3ccccc3)OC[C@H]2O)sc2ccccc21 (stereo not given in full),33.5,37.5,30.9,37.5,36.3,> 100,32.5,30.9,54.6,34.7,32.7,26.3,32.7,33.2,29.8,47,31.1,52.8,38.6,44
CC(=O)OCCOc1cc2c([nH]c3ccccc32)c(C)c2cccc1-2,10.3,5.17,4.4,> 24.9,5.4,> 100,11,3.22,10.3,18.5,4.97,8.97,3.62,5.17,3.38,5.57,> 100,4,6.14,3.35
O=C1C(Cl)C(c2cc3cc(Br)ccc3nc2Cl)N1c1ccc(Cl)cc1 (stereo not given),> 25,17.2,10.6,> 25,13.3,16.7,15.9,10.2,13.3,> 25,13.8,> 25,9.41,8.13,7.35,23.8,> 25,9.4,9.3,11.2
